# Values joined by “and” are separate entries in the source; they are usually repeats but may differ in a detail not shown here. Identical values can stand only once.
# Legend:
# Anas platyrhynchos = settings: for LC50: short-term, feed
# Colinus virginianus = settings: for LC50: diet
# Cyprinodon variegatus = settings: acute; duration: 96 hours; mortality
# Tagia sp. = settings: acute; duration: 14 days; mortality
# Apis mellifera = settings: acute; duration: 48 hours; oral; unspecified; mortality
# Daphnia magna = settings: chronic/long-term; duration: 21 days
# Coturnix japonica = settings: acute; oral; mortality
# Folsomia candida = settings: chronic/long-term; duration: 28 days; reproduction
# Typhlodromus pyri = assay: LR50; higher = less toxic; settings: not reported; mortality
smiles,measurement,setting,value
"NC(Cc1ncn[nH]1)C(=O)O (stereo not drawn) [1,2,4-Triazole-3-alanine]",NOAEL,"Rattus norvegicus; developmental, development",100 mg/kg-day
same,LC50,"Anas platyrhynchos; oral, mortality",> 1340 mg/kg-day
same,LC50,"Colinus virginianus; acute, oral, mortality",> 1400 mg/kg-day
CC(C1CC1)C(O)(Cn1cncn1)c1ccc(Cl)cc1 (stereo not drawn) [Cyproconazole],NOAEL,"Rattus norvegicus; chronic, duration: 2 years, M/F, body weight",2.22 mg/kg-day
same,NOAEL,"Rattus norvegicus; reproduction developmental, F, reproduction",1.7 mg/kg-day
same,NOAEL,"Rattus norvegicus; reproduction developmental, M, organ weight",1.4 mg/kg-day
same,LC50,"Oncorhynchus mykiss; acute, duration: 96 hours, mortality",19 µg/mL
same,NOEC,"Oncorhynchus mykiss; chronic/long-term, duration: 89 days, growth",0.16 mg/L
same,LC50,Cyprinodon variegatus,21 µg/mL
same,LD50,"Anas platyrhynchos; acute, oral, unspecified, mortality",> 2000 mg/kg-day
same,NOEC,Anas platyrhynchos; reproductive,1.4 mg/kg-day and 2.4 mg/kg-day
same,LC50,"Anas platyrhynchos; oral, mortality",151 mg/kg-day
same,LC50,Tagia sp.,> 335 mg/kg
same,LD50,Apis mellifera,> 100 µg/piece
same,NOEC,Daphnia magna,0.023 mg/L
same,LD50,"Mus musculus; acute, oral, mortality",200 mg/kg-day
same,NOAEL,"Mus musculus; chronic, duration: 18 months, body weight",1.84 mg/kg-day
same,LD50,Coturnix japonica,130 mg/kg-day
same,LC50,"Colinus virginianus; acute, oral, mortality",478 mg/kg-day and 585 mg/kg-day
same,LD50,"Colinus virginianus; acute, oral, mortality",94 mg/kg-day and 183 mg/kg-day
same,NOEC,Colinus virginianus; reproduction developmental,6.6 mg/kg-day
same,NOEC,Folsomia candida,55.8 mg/kg
same,LR50,Typhlodromus pyri,29.4 g/ha

# Reference: EPA's ToxValDB 9.5 (doi:10.2903/j.efsa.2010.1897)
